Patent US20250034159A1, “INHIBITORS OF EPIDERMAL GROWTH FACTOR RECEPTOR” (ORIC Pharmaceuticals, Inc., priority 2021, published 2025)
Like-named read-outs stand apart in the source and are kept apart here.

Assays:
[1] = molecular target: recombinant human EGFR exon 19 deletion/C797S double mutant protein (Homo sapiens (Human), UniProt P00533, C797S/DEL746-750); assay: Biological Activity Assay C: biochemical assay against EGFR exon 19 deletion/C797S protein (EGFR d19/CS)
Method in brief: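 IC50 values were fitted with a 4-parameter model to reaction slopes taken from 90 kinetic reads spaced 120 s apart. The Phosphosens sensor/ATP working solution was 40 uM/4 mM, and compound was dosed as 16-point dilutions at 2.5% final DMSO.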

Ba/F3_EGFR WT cells = assay: Biological Activity Assay D: BaF3 cell proliferation assay, EGFR wild-type (BaF3 WT); assay type: cell-based; settings: Ba/F3 EGFR, read-out: BaF3 WT IC50
[2] = molecular target: recombinant human EGFR L858R/C797S double mutant protein (Homo sapiens (Human), UniProt P00533, C797S/L858R); assay: Biological Activity Assay B: biochemical assay against EGFR L858R/C797S protein (EGFR LR/CS)
Procedure: In Row A of a 384-well polypropylene plate, was added 48 μL of DMSO. In wells A1 and A24, were added 12 μL of DMSO. […] To a well in Row A were added 12 μL of each 10 mM test compound stock (100% DMSO). […] The final intermediate dilution plate contained 4×16-point compound serial dilutions in assay buffer. The DMSO concentration was 10%. The intermediate compound dilution plate was transferred to the Bravo and the “5 uL dispense into ARP.pro” protocol was run. To the black low volume assay ready plates, were added 5 μL of 40 uM Phosphosens peptide sensor/4 mM ATP working solution to each well. […] To column 24, was added 10 μL of assay buffer. The final DMSO concentration was 2.5%. […] The plates were sealed with the TopSeal-A Plus plate seals. […] Set for 90 cycles with 120 second interval. […] The slope of each curve was constructed using Dotmatics in each well, and each IC50s was calculated using a 4-parameter fit model.

BaF3_EGFR d19/CS cells = assay: Biological Activity Assay D: BaF3 cell proliferation assay, EGFR exon 19 deletion/C797S (BaF3 d19/CS); assay type: cell-based; settings: Ba/F3 EGFR, read-out: BaF3 d19/CS IC50
BaF3_EGFR LR/CS cells = assay: Biological Activity Assay D: BaF3 cell proliferation assay, EGFR L858R/C797S mutant (BaF3 LR/CS); assay type: cell-based; settings: Ba/F3 EGFR, read-out: BaF3 LR/CS IC50
[3] = Ba/F3_EGFR WT cells, ~72 hours, CellTiter-Glo
[4] = BaF3_EGFR d19/CS cells, ~72 hours, CellTiter-Glo
[5] = BaF3_EGFR LR/CS cells, ~72 hours, CellTiter-Glo

Chain of recombinant human EGFR exon 19 deletion/C797S double mutant protein (P00533 other isoform, or with tags, fused parts or gaps C797S/del 1-668/del 746-750 limits assumed): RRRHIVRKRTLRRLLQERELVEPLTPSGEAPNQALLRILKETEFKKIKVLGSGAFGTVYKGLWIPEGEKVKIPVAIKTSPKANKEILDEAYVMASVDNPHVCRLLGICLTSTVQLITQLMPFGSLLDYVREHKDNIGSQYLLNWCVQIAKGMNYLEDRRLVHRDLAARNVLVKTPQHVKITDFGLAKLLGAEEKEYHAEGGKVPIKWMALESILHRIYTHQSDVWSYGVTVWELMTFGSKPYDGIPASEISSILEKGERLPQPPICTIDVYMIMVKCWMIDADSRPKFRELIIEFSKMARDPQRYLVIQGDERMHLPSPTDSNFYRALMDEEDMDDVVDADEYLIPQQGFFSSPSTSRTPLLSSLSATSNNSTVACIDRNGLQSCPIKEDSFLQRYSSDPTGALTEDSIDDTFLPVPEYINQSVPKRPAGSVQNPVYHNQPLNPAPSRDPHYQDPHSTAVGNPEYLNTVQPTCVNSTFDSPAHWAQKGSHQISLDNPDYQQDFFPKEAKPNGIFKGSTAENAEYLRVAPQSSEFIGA
Chain of recombinant human EGFR L858R/C797S double mutant protein (P00533 25-1210 C797S/L858R): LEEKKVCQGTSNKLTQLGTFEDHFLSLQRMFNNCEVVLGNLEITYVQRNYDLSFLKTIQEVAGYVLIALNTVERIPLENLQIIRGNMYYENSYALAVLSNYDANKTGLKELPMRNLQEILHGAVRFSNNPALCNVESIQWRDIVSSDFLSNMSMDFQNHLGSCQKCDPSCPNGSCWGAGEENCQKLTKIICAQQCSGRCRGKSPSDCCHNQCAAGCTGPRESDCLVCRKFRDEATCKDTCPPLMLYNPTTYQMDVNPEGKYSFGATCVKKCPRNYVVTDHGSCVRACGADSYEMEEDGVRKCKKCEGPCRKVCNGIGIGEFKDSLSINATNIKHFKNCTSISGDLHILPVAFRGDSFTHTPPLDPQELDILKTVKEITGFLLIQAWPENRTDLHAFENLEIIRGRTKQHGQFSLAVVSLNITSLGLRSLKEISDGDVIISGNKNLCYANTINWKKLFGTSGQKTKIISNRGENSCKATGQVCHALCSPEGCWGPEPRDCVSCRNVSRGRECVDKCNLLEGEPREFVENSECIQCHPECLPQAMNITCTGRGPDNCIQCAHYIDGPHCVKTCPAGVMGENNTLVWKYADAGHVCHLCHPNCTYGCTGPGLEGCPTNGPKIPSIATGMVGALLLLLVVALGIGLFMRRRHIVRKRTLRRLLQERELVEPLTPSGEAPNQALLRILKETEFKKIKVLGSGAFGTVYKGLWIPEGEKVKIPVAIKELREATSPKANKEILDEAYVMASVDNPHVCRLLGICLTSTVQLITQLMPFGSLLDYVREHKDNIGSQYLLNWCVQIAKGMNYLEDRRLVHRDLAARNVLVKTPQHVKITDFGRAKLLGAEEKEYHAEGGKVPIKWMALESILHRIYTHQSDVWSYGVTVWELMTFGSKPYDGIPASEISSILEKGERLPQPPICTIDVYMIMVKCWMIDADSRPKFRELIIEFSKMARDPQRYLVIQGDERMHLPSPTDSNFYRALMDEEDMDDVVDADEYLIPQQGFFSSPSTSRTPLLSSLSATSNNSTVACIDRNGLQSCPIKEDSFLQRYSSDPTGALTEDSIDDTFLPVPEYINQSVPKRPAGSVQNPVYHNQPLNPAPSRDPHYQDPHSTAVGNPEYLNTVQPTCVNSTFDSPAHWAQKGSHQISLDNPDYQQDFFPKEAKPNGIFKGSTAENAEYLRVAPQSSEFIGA

SMILES | IC50 [1] | IC50 (Ba/F3_EGFR WT cells; [3]) | IC50 [2] | IC50 (BaF3_EGFR d19/CS cells; [4]) | IC50 (BaF3_EGFR LR/CS cells; [5]) | IC50 (Ba/F3_EGFR WT cells; 72 h) | IC50 (BaF3_EGFR d19/CS cells; 72 h) | IC50 (BaF3_EGFR LR/CS cells; 72 h)
CC(C)(O)CCn1cc(-c2ncnc3oc(-c4ccccc4)cc23)c(-c2ccc(F)cc2)n1 [Example 34, 4-[3-(4-fluorophenyl)-4-(6-phenylfuro[2,3-d]pyrimidin-4-yl)-1H-pyrazol-1-yl]-2-methylbutan-2-ol] | 1.59 nM | 7780 nM | 1.17 nM | 122 nM | 225 nM |  |  | 
OCCCc1nc(-c2ccc(F)cc2)c(-c2ncnc3oc(-c4ccccc4)cc23)o1 [Example 35, 3-[4-(4-Fluorophenyl)-5-(6-phenylfuro[2,3-d]pyrimidin-4-yl)-1,3-oxazol-2-yl]propan-1-ol] | 0.54 nM |  | 0.958 nM |  |  | 5950 nM | 185 nM | 134 nM
CN(C)C(=O)CCc1nc(-c2ccc(F)cc2)c(-c2ncnc3oc(-c4ccccc4)cc23)o1 [Example 37, 3-[4-(4-fluorophenyl)-5-(6-phenylfuro[2,3-d]pyrimidin-4-yl)-1,3-oxazol-2-yl]-N,N-dimethylpropanamide] | 2.6 nM | 6280 nM | 1.87 nM | 514 nM | 318 nM |  |  | 
CS(=O)(=O)CCn1cc(-c2ncnc3oc(-c4ccccc4)cc23)c(-c2ccc(F)cc2)n1 [Example 38, 4-{3-(4-Fluorophenyl)-1-[2-(methanesulfonyl)ethyl]-1H-pyrazol-4-yl}-6-phenylfuro[2,3-d]pyrimidine] | 0.856 nM | 2170 nM | 0.434 nM | 44.8 nM | 121 nM |  |  | 
O=S1(=O)CCC(n2cc(-c3ncnc4oc(-c5ccccc5)cc34)c(-c3ccc(F)cc3)n2)C1 (centres unmarked) [Example 41, 3-[3-(4-fluorophenyl)-4-(6-phenylfuro[2,3-d]pyrimidin-4-yl)-1H-pyrazol-1-yl]-1λ6-thiolane-1,1-dione] | 0.375 nM | 2390 nM | 0.518 nM | 34.7 nM | 61.6 nM |  |  | 
Fc1ccc(-c2nn(CCCC(F)F)cc2-c2ncnc3oc(-c4ccccc4)cc23)cc1 [Example 45, 4-[1-(4,4-Difluorobutyl)-3-(4-fluorophenyl)-1H-pyrazol-4-yl]-6-phenylfuro[2,3-d]pyrimidine] | 1.51 nM | 2290 nM | 1.12 nM | 37.5 nM | 185 nM |  |  | 
Fc1ccc(-c2nn(CC3COC3)cc2-c2ncnc3oc(-c4ccccc4)cc23)cc1 [Example 47, 4-{3-(4-Fluorophenyl)-1-[(oxetan-3-yl)methyl]-1H-pyrazol-4-yl}-6-phenylfuro[2,3-d]pyrimidine] | 0.473 nM | 4530 nM | 0.594 nM | 72.5 nM | 92.5 nM |  |  | 
NC(=O)CCc1nc(-c2ccc(F)cc2)c(-c2ncnc3oc(-c4ccccc4)cc23)o1 [Example 49, 3-[4-(4-fluorophenyl)-5-(6-phenylfuro[2,3-d]pyrimidin-4-yl)-1,3-oxazol-2-yl]propanamide] | 1.77 nM | 20000 nM | 3.42 nM | 250 nM | 132 nM |  |  | 
CN(C)S(=O)(=O)CCn1cc(-c2ncnc3oc(-c4ccccc4)cc23)c(-c2ccc(F)cc2)n1 [Example 50, 2-[3-(4-fluorophenyl)-4-(6-phenylfuro[2,3-d]pyrimidin-4-yl)-1H-pyrazol-1-yl]-N,N-dimethylethane-1-sulfonamide] | 1.02 nM | 2080 nM | 0.635 nM | 59.1 nM | 241 nM |  |  | 
CN(C)S(=O)(=O)n1cc(-c2ncnc3oc(-c4ccccc4)cc23)c(-c2ccc(F)cc2)n1 [Example 51, 3-(4-fluorophenyl)-N,N-dimethyl-4-(6-phenylfuro[2,3-d]pyrimidin-4-yl)-1H-pyrazole-1-sulfonamide] | 27.2 nM | 10700 nM | 17.1 nM | 972 nM | 770 nM |  |  | 
O=S1(=O)CC(CCn2cc(-c3ncnc4oc(-c5ccccc5)cc34)c(-c3ccc(F)cc3)n2)C1 [Example 52, 3-{2-[3-(4-Fluorophenyl)-4-(6-phenylfuro[2,3-d]pyrimidin-4-yl)-1H-pyrazol-1-yl]ethyl}-1λ6-thietane-1,1-dione] | 0.368 nM | 1940 nM | 0.307 nM | 20.8 nM | 106 nM |  |  | 
CC(C)(O)CCc1nc(-c2ccc(F)cc2)c(-c2ncnc3oc(-c4ccccc4)nc23)o1 [Example 57, 4-[4-(4-fluorophenyl)-5-(2-phenyl[1,3]oxazolo[5,4-d]pyrimidin-7-yl)-1,3-oxazol-2-yl]-2-methylbutan-2-ol] | 10.3 nM | 7390 nM | 16.8 nM | 1290 nM | 689 nM |  |  | 

Further molecules by falling IC50 [1], results first:

IC50 [1] | IC50 (Ba/F3_EGFR WT cells; [3]) | IC50 [2] | IC50 (BaF3_EGFR d19/CS cells; [4]) | IC50 (BaF3_EGFR LR/CS cells; [5]) | SMILES | IC50 (Ba/F3_EGFR WT cells; 72 h) | IC50 (BaF3_EGFR d19/CS cells; 72 h) | IC50 (BaF3_EGFR LR/CS cells; 72 h)
20.1 nM | 8860 nM | 15.8 nM | 837 nM | 992 nM | O[C@H]1C[C@H](Cn2ncc(-c3ncnc4oc(-c5ccccc5)cc34)c2-c2ccc(F)cc2)C1 [Example 54, (1r,3r)-3-{[5-(4-fluorophenyl)-4-(6-phenylfuro[2,3-d]pyrimidin-4-yl)-1H-pyrazol-1-yl]methyl}cyclobutan-1-ol] |  |  | 
5.19 nM | 1920 nM | 6.14 nM | 147 nM | 161 nM | CS(=O)(=O)n1cc(-c2ncnc3oc(-c4ccccc4)cc23)c(-c2ccc(F)cc2)n1 [Example 39, 4-[3-(4-fluorophenyl)-1-(methanesulfonyl)-1H-pyrazol-4-yl]-6-phenylfuro[2,3-d]pyrimidine] |  |  | 
4.58 nM | 5490 nM | 3.58 nM | 184 nM | 224 nM | CS(=O)(=O)n1ncc(-c2ncnc3oc(-c4ccccc4)cc23)c1-c1ccc(F)cc1 [Example 56, 4-[5-(4-fluorophenyl)-1-(methanesulfonyl)-1H-pyrazol-4-yl]-6-phenylfuro[2,3-d]pyrimidine] |  |  | 
1.79 nM | 6650 nM | 2.76 nM | 421 nM | 263 nM | CC(C)(O)CCc1nc(-c2ccc(F)cc2)c(-c2ncnc3oc(-c4ccccc4)cc23)o1 [Example 44, 4-[4-(4-fluorophenyl)-5-(6-phenylfuro[2,3-d]pyrimidin-4-yl)-1,3-oxazol-2-yl]-2-methylbutan-2-ol] |  |  | 
1.35 nM | 20000 nM | 1.13 nM | 339 nM | 209 nM | CNC(=O)CCc1nc(-c2ccc(F)cc2)c(-c2ncnc3oc(-c4ccccc4)cc23)o1 [Example 36, 3-[4-(4-fluorophenyl)-5-(6-phenylfuro[2,3-d]pyrimidin-4-yl)-1,3-oxazol-2-yl]-N-methylpropanamide] |  |  | 
0.335 nM | 2090 nM | 0.527 nM | 37.5 nM | 57.5 nM | O[C@H]1C[C@@H](Cn2cc(-c3ncnc4oc(-c5ccccc5)cc34)c(-c3ccc(F)cc3)n2)C1 [Example 42, (1s, 3s)-3-{[3-(4-Fluorophenyl)-4-(6-phenylfuro[2,3-d]pyrimidin-4-yl)-1H-pyrazol-1-yl]methyl}cyclobutan-1-ol] |  |  | 
0.317 nM | 2160 nM | 0.389 nM | 21.1 nM | 41.1 nM | CC(C)(O)Cn1cc(-c2ncnc3oc(-c4ccccc4)cc23)c(-c2ccc(F)cc2)n1 [Example 46, 1-[3-(4-Fluorophenyl)-4-(6-phenylfuro[2,3-d]pyrimidin-4-yl)-1H-pyrazol-1-yl]-2-methylpropan-2-ol] |  |  | 
0.29 nM | 1280 nM | 0.247 nM | 21.4 nM | 78.5 nM | CS(=O)(=O)CCCn1cc(-c2ncnc3oc(-c4ccccc4)cc23)c(-c2ccc(F)cc2)n1 [Example 55, 4-{3-(4-Fluorophenyl)-1-[3-(methanesulfonyl)propyl]-1H-pyrazol-4-yl}-6-phenylfuro[2,3-d]pyrimidine] |  |  | 
0.24 nM | 2240 nM | 0.39 nM | 40 nM | 73.2 nM | O[C@H]1C[C@H](Cn2cc(-c3ncnc4oc(-c5ccccc5)cc34)c(-c3ccc(F)cc3)n2)C1 [Example 43, (1r,3r)-3-{[3-(4-Fluorophenyl)-4-(6-phenylfuro[2,3-d]pyrimidin-4-yl)-1H-pyrazol-1-yl]methyl}cyclobutan-1-ol] |  |  | 
0.192 nM | 2100 nM | 0.327 nM | 22 nM | 36.4 nM | O=S1(=O)CC(n2cc(-c3ncnc4oc(-c5ccccc5)cc34)c(-c3ccc(F)cc3)n2)C1 [Example 40, 3-[3-(4-Fluorophenyl)-4-(6-phenylfuro[2,3-d]pyrimidin-4-yl)-1H-pyrazol-1-yl]-1λ6-thietane-1,1-dione] |  |  | 
